Assay results published in patent EP1383793B1 (priority 2000, dated 2001).
Residues, ends and D or L forms follow the SMILES beside them. *: point of attachment. Biotin = O=C1N[C@H]2[C@H](CS[C@H]2CCCCC(=O)*)N1

Assays:
[1] = target: human IGF-1 receptor (HIGF-1R) (Homo sapiens, UniProt P08069); test: 125I-IGF-1 competition binding assay on solubilised purified receptor; conditions: for Ratio: Kd HIGF1R / Kd HIR
[2] = target: T1, human insulin receptor (HIR) (Homo sapiens, UniProt P06213); test: 125I-insulin competition binding assay on solubilised purified receptor; conditions: read-out: Kd (µM) HIR
T1 construct: made in house

Insulin receptor [3] = target: T2, Insulin receptor (Homo sapiens, UniProt P06213); test: BIAcore competition: IR pre-incubated with test substance, injected over immobilised insulin; type: binding; conditions: peptide about 40 µM, IR 450 nM
T2 construct: composed of the extracellular domains of both the α and β chains of the natural receptor; made in house; background b13 names human embryonic kidney 293 cells for the Bass et al. construct
Method: Flowcell-1 was used for background binding to correct for any non-specific binding. […] The surface was regenerated with 25 mM NaOH. […] Thus, the system was validated for competition studies. […] The amino acid sequences referred to in the tables are identified in Figures 47 and 48, except the 447 and 2A9 sequences, which are shown below. TABLE 9: BIAcore Results-Fusion Proteins Compete for Binding to IR

IR [4] = target: T3, IR (Homo sapiens, UniProt P06213); test: Phage ELISA, binding of phage-displayed peptides to IR; conditions: for Absorbance Values IR: 405 nm
T3 construct: composed of the extracellular domains of both the α and β chains of the natural receptor; made in house; background b13 names human embryonic kidney 293 cells for the Bass et al. construct
Method: Amino acid sequences comprising the motif of Formulas 1 through 10. […] Fifty microliters of this solution was added to an appropriate number of wells in a 96-well microtiter plate (MaxiSorp plates, Nunc) and incubated overnight at 4°C. […] To isolate specific binders, each library was panned against a soluble form of the human IR. This IR is composed of the extracellular domains of both the α and β chains of the natural receptor, as well as the constant domain from immunoglobulin Fc, retaining the β-α-α-β structure described above. Because the IR is expressed in a eukaryotic system, disulfide bond formation and glycosylation patterns should mimic the wild-type receptor. The details of this recombinant protein construct are described in Bass et al. (1996). Phage ELISA. […] The wells were blocked with 200 µl of MPBS for 1.5 h at RT. […] Peptides were added as noted below and allowed to incubate at RT for 3 h. The plates were washed 3 times with PBST. A solution of 1:3000 diluted HRP:Anti-M13 conjugate at 100 µl per well of was added for 1 h. Following a repeat of the washing, 100 µl of ABTS was added for 15-30 min. […] Phage ELISA. […] Peptides were added as noted below and allowed to incubate at RT for 3 h. […] A solution of 1:3000 diluted HRP:Anti-M13 Conjugate at 100 µl per well of was added for 1 h. Following a repeat of the washing, 100 µl of ABTS was added for 15-30 min. The OD405 was measured using a SpectraMax 340 Microplate Spectrophotometer.

adipocytes = test: 3H-glucose uptake into adipocytes (fat cell assay, FFC); type: cell-based, Mouse; parameters: key to Resp.: -2 (antagonist); +2 (agonist); conditions: for ED50: Estimated, not calculated values; for Resp.: Subjective ranking, basal and sub maximal insulin, includes series A; for ED50 in the effect assay (FFC): best peptides, agonists
IGF-1R [5] = target: T4, IGF-1R (Homo sapiens, UniProt P08069); test: Phage ELISA, binding of phage-displayed peptides to IGF-1R; conditions: 405 nm
T4 construct: Soluble IGF-1R was obtained from R&D Systems; purchased R&D Systems 391-GR/CF
Method: Figures 1A-10G. Amino acid sequences comprising the motif of Formulas 1 through 10. […] One hundred microliters of this solution was added to an appropriate number of wells in a 96-well microtiter plate (MaxiSorp plates, Nunc) and incubated overnight at 4°C. […] Subsequent steps are the same for pooled and clonal phage. […] Phage resuspended in MPBS were added to duplicate wells (100 µl/well) and incubated at RT for 1 h. […] Incubation was for 1 h at RT, followed by PBS washes as described. […] Phage ELISA. […] The wells were blocked with 200 µl of MPBS for 1.5 h at RT. Phage were added at 100 µl per well. Peptides were added as noted below and allowed to incubate at RT for 3 h. The plates were washed 3 times with PBST. A solution of 1:3000 diluted HRP:Anti-M13 conjugate at 100 µl per well of was added for 1 h. Following a repeat of the washing, 100 µl of ABTS was added for 15-30 min. […] Phage ELISA. […] Phage were added at 100 µl per well. Peptides were added as noted below and allowed to incubate at RT for 3 h. The plates were washed 3X with PBST. A solution of 1:3000 diluted HRP:Anti-M13 Conjugate at 100 µl per well of was added for 1 h. Following a repeat of the washing, 100 µl of ABTS was added for 15-30 min. The OD405 was measured using a SpectraMax 340 Microplate Spectrophotometer.

IR [6] = target: T3, IR; test: Phage ELISA, competition of phage binding by soluble synthetic peptides, IR-coated wells; conditions: Insulin Receptor
Method: (§1) Peptide Competition. […] Twenty microliters of the stock synthetic-peptide solution was added to Row A. A series of 20 µl into 100 µl dilutions were performed until Row G. Twenty microliters were discarded from Row G to maintain 100 µl per well. Row H was reserved as no peptide wells. […] The volume was maintained by the addition of 18 µl of the phage solution to Row A.
(§2) Phage ELISA. […] The wells were blocked with 200 µl of 2% (w/v) Carnation non-fat dry milk in PBS for 1.5 h at RT. Phage were added at 100 µl per well. Peptides were added as noted below and allowed to incubate at RT for 3 h. The plates were washed 3X with PBST. A solution of 1:3000 diluted HRP:Anti-M13 Conjugate at 100 µl per well of was added for 1 h. Following a repeat of the washing, 100 µl of ABTS was added for 15-30 min. The OD405 was measured using a SpectraMax 340 Microplate Spectrophotometer.
(§3) Peptide Competition. Peptide Competition Curves were produced during the phage ELISA across rows in triplicate. The stock synthetic peptide solution was added to Column 12 so that the total volume totaled 150 µl (additional phage solution was added when necessary). A serial dilution was made by transferring 50 µl from Column 12 into 100 µl in Column 11, 50 µl from Column 11 into 100 µl in Column 10, and continuing the serial dilution until Column 2. Fifty microliters were discarded from Column 2 to maintain 100 µl per well. Column 1 was reserved as no peptide wells.
(§4) A p53-like peptide that binds to MDM2 was used as a negative control.

IGF-1R [7] = target: T4, IGF-1R; test: Phage ELISA, competition of phage binding by soluble synthetic peptides, IGF-1R-coated wells; conditions: IGF Receptor
Method: as §1, §2, §3, §4

[8] = Precipitate in diluted peptide stock prior to adding to the fat cell assay; solubility under assay conditions; type: physicochemical; conditions: for Comments (precipitation): diluted stock prior to adding to assay
Insulin receptor [9] = target: T2, Insulin receptor; test: Heterogeneous time-resolved fluorescence assay (TRFA) on insulin receptor; type: binding; conditions: peptide at 30 µM
Method: In this assay, saEu forms a ternary complex with bP and IR (i.e., IR:bP:saEu complex). The TRFD assay format is well established, sensitive, and quantitative (Tompkins et al., 1993). The assay can use a single-chain antibody or a biotinylated peptide.
In these assays, soluble IR is coated on the surface of microtiter wells, blocked by a solution of 0.5% BSA and 2% non-fat milk in PBS, and then incubated with biotinylated peptide or rVab. Unbound bP is then washed away and saEu is added to complex with receptor-bound bP. Upon addition of the acidic enhancement solution, the bound europium is released as free Eu^3+ which rapidly forms a highly fluorescent and stable complex with components of the enhancement solution. The IR:bP bound saEu is then converted into its highly fluorescent state and detected by a detector such as Wallac Victor II (EG&G Wallac, Inc.)
• a. Heterogeneous Time-Resolved Fluorescence Assay. […] The plates were blocked with TBS containing 2% milk and 0.5% BSA for 1 h at RT followed by three TBS washes. […] After TBS wash, europium-labeled streptavidin at 1 µg/ml in assay buffer (100 mM Tris-HCl, pH 7.8; 150 mM NaCl; 0.5% BSA; 0.05% bovine Ig; 0.05% NaN3; 0.01% Tween-20) was added to the plates and incubated for 1 h. To test binding of rVab antibodies to IR, Eu-labeled rVab antibodies in assay buffer were added to the plates and incubated for 2 h to overnight. After incubation with Eu-labeled streptavidin (for peptide test) or europium-labeled rVabs, the plates were washed 5 times with Tris-buffered saline (pH 7.5) containing 0.1 % Tween-20 (TTBS) and tapped dry. Sixty microliters of EG&G Wallac enhancement solution (100 mM acetone-potassium hydrogen pthalate, pH 3.2; […] 2-naphtyltrifluoroacetate; […] tri(n-octyl)-phosphine oxide; 0.1 % Triton X-100) was added into each well, and the plates were placed onto a shaker for 20 min at RT. […] Homogeneous Time-Resolved Fluorescence Assay. […] For library screening, 20 µM of small organic molecules in 2 % DMSO are included in the mixture.

Row | Compound | Absorbance Values IR (IR [4]) | Comments (dose response, effect at basal insulin) (adipocytes) | ED50 (adipocytes) | Resp. (adipocytes) | Absorbance Values sIGF-1R (IGF-1R [5]) | Ratio [1] | n (Hill plot) (IR [6]; 20D3 Phage) | n (Hill plot) (IR [6]; H2 Phage) | n (Hill plot) (IGF-1R [7]; H2 Phage) | Comments (precipitation) [8] | ED50 in the effect assay (FFC) (adipocytes) [µM] | other results
1 | CC(C)C[C@H](NC(=O)CNC(=O)[C@H](CC(N)=O)NC(=O)[C@H](Cc1ccc(O)cc1)NC(=O)[C@H](Cc1ccccc1)NC(=O)[C@H](C)NC(=O)[C@H](CCCNC(=N)N)NC(=O)[C@H](CC(=O)O)NC(=O)[C@@H](N)CCCCN)C(=O)N[C@@H](CCCNC(=N)N)C(=O)N[C@@H](CC(=O)O)C(=O)N[C@@H](CC(C)C)C(=O)N[C@H](C(=O)NCC(=O)N[C@@H](C)C(=O)N[C@H](C(=O)N[C@@H](Cc1ccc(O)cc1)C(=O)NCC(=O)N[C@@H](C)C(=O)N[C@@H](Cc1c[nH]c2ccccc12)C(=O)N[C@@H](CC(=O)O)C(=O)N[C@@H](CCCCN)C(=O)N[C@@H](CCCCNC(=O)CCCC[C@@H]1SC[C@@H]2NC(=O)N[C@@H]21)C(N)=O)C(C)C)C(C)C [Clone 20C11] (H-KDRAFYNGLRDLVGAVYGAWDKK(Biotin)-NH2) | – | – | – | – | – | – | – | – | – | – | – | Kd [1]: 13 µM; Kd [2]: 4.5 µM; % Binding (Insulin receptor [3]): 38%
2 | CC[C@H](C)[C@H](NC(=O)[C@H](C)NC(=O)[C@H](CC(=O)O)NC(=O)[C@H](Cc1ccc(O)cc1)NC(=O)[C@H](Cc1ccccc1)NC(=O)[C@H](CC(=O)O)NC(=O)[C@H](CCCCN)NC(=O)[C@H](Cc1ccc(O)cc1)NC(=O)[C@@H](N)CC(=O)O)C(=O)N[C@@H](CC(=O)O)C(=O)N[C@@H](CCC(N)=O)C(=O)N[C@@H](CC(C)C)C(=O)N[C@H](C(=O)N[C@@H](CCCNC(=N)N)C(=O)NCC(=O)N[C@@H](CO)C(=O)N[C@@H](C)C(=O)N[C@@H](CCCNC(=N)N)C(=O)N[C@@H](C)C(=O)NCC(=O)NCC(=O)N[C@H](C(=O)N[C@@H](CCCNC(=N)N)C(=O)N[C@@H](CC(=O)O)C(=O)N[C@@H](CCCCN)C(=O)N[C@@H](CCCCNC(=O)CCCC[C@@H]1SC[C@@H]2NC(=O)N[C@@H]21)C(N)=O)[C@@H](C)O)C(C)C [Clone 20E2] (H-DYKDFYDAIDQLVRGSARAGGTRDKK(Biotin)-NH2; N-terminus assumed) | 1.01 | Biphasic dose response curve (needs repeating) | Approx 20 µM | +2 | 2.15 | – | – | – | – | – | – | –
3 | CSCC[C@H](NC(=O)[C@@H](NC(=O)[C@H](CO)NC(=O)[C@H](CC(C)C)NC(=O)[C@H](CC(C)C)NC(=O)[C@H](C)NC(=O)[C@H](CO)NC(=O)[C@H](Cc1c[nH]c2ccccc12)NC(=O)[C@@H](N)CCCCN)C(C)C)C(=O)N[C@@H](CC(=O)O)C(=O)N[C@H](C(=O)NCC(=O)N[C@@H](Cc1ccccc1)C(=O)N[C@@H](Cc1ccc(O)cc1)C(=O)N[C@@H](C)C(=O)N[C@@H](Cc1c[nH]c2ccccc12)C(=O)N[C@@H](Cc1ccccc1)C(=O)N[C@@H](CC(=O)O)C(=O)N[C@@H](CC(=O)O)C(=O)N[C@@H](C)C(=O)N[C@H](C(=O)N[C@@H](CCCCN)C(=O)N[C@@H](CCCCNC(=O)CCCC[C@@H]1SC[C@@H]2NC(=O)N[C@@H]21)C(N)=O)C(C)C)[C@@H](C)O [Clone B8] (H-KWSALLSVMDTGFYAWFDDAVKK(Biotin)-NH2; N-terminus assumed) | 1.30 | – | – | 0 | 2.55 | 20 | – | – | – | – | – | –
4 | CC(C)[C@H](NC(=O)[C@H](C)NC(=O)[C@H](CO)NC(=O)[C@@H](NC(=O)[C@H](Cc1ccccc1)NC(=O)[C@@H](NC(=O)[C@@H](NC(=O)[C@H](CC(=O)O)NC(=O)[C@H](CCCCN)NC(=O)[C@H](Cc1ccc(O)cc1)NC(=O)[C@@H](N)CC(=O)O)C(C)C)[C@@H](C)O)[C@@H](C)O)C(=O)N[C@@H](Cc1ccccc1)C(=O)N[C@@H](Cc1c[nH]cn1)C(=O)N[C@@H](CCC(=O)O)C(=O)N[C@@H](CC(N)=O)C(=O)N[C@@H](Cc1ccccc1)C(=O)N[C@@H](Cc1ccc(O)cc1)C(=O)N[C@@H](CC(=O)O)C(=O)N[C@@H](Cc1c[nH]c2ccccc12)C(=O)N[C@@H](Cc1ccccc1)C(=O)N[C@H](C(=O)N[C@@H](CCCNC(=N)N)C(=O)N[C@@H](CCC(N)=O)C(=O)N[C@H](C(=O)N[C@@H](CO)C(=O)N[C@@H](CCCCN)C(=O)N[C@@H](CCCCNC(=O)CCCC[C@@H]1SC[C@@H]2NC(=O)N[C@@H]21)C(N)=O)C(C)C)C(C)C [Clone H2] | – | Some response at basal insulin | Approx 20 µM | +2 | – | 7.2 | 1.07 | 0.71 | 1.21 | Insoluble, especially after freeze-thaw | 20 to 30 | binding to IR when expressed as phage (IR [4]): detectable binding; Result (RUs) (Insulin receptor [3]; IR alone 128 RU): 34.6 RUs
5 | FHENFYDWFVRQVSKK [Clone H2C] | – | Some response at basal insulin | Approx 20 µM | +2 | – | 8.6 | 1.03 | 0.62 | 1.02 | Precipitates | 20 to 30 | n (Hill plot) (IGF-1R [7]; 20D3 Phage): 0.81; binding of rVab 12H10 to IR (Insulin receptor [9]): 40-50 % of control; Comments (soluble under assay conditions) ([8]; under assay conditions, no ppt in microscope, low magnification): ≥ 20 µM
6 | KSMFVAGSDRWPGYGVLADWLKK [Clone F2] | 1.43 | – | – | – | 2.08 | – | – | – | – | – | – | –
